Results: patent publication US20080014186A1, “Hla-A24 or Hla-A2 Binding Peptides of Parathyroid Hormone-Related Protein” (GREEN PEPTIDE CO., LTD., priority 2004, published 2008)

Key:
[1] = test system: IgG in plasma of HLA-A2^+ healthy donors and prostate cancer patients; assay: Peptide-specific IgG in plasma by ELISA (HLA-A2-binding PTHrP peptides); set-up: species or system human; conditions: for IgG reactive to the peptide in plasma (difference of OD): 1:100-diluted plasma
Method: Peptide-specific IgG levels in the plasma were measured by ELISA, as previously reported. In brief, peptide (20 μg/well)-immobilized plates were blocked with Block Ace (Yukijirushi, Tokyo, Japan) and washed with 0.05% Tween20-PBS, after which 100 μl/well of plasma sample diluted with 0.05% Tween20-Block Ace was added to the plate. After 2 hours incubation at 37° C., the plates were washed and further incubated for 2 hours with a 1:1000-diluted rabbit anti-human IgG (γ-chain-specific) (DAKO, Glostrup, Denmark). The plates were washed, and then 100 μl of 1:100-diluted goat anti-rabbit IgG-conjugated horseradish peroxidase (EnVision, DAKO) was added to each well, and the plates were then incubated at room temperature for 40 min. After the plates were washed once, 100 μl/well of tetramethyl benzidine substrate solution (KPL, Guildford, UK) was added, and the reaction was stopped by the addition of 1 M phosphoric acid. The values are shown as optical density (OD) units/ml, and responses to the HIV peptide were subtracted. IgG reactive to a corresponding PTHrP peptide was judged to be positive when the difference of the OD in 1:100-diluted plasma exceeded 0.05. The results that IgG reactive to either the PTHrP102-111 or the […] peptide was detected in 8 of 10 healthy donors and in 7 of 10 prostate cancers are shown in Table 2 hereinafter.
In a similar way to Example 3, it was examined whether IgGs reactive to peptides of PTHrP 42-51 and PTHrP 59-67 could be detected in the plasma of 10 healthy donors and 10 cancer patients. The cut-off value at 1:100-diluted plasma was ODO.054.

[2] = test system: PBMCs of HLA-A2^+ healthy donors and prostate cancer patients; assay: Assay for peptide-specific CTLs in PBMCs (IFN-γ ELISA, peptide-pulsed T2 cells); type: cell-based, human; conditions: for INF-γ production: T2 cells
[3] = HLA-A2^+ prostate cancer patients

FLHHLIAEIH [PTHrP 59-68, previously reported PTHrP peptide generating CTLs from HLA-A*0201 healthy donors [17], reference compound]
IgG reactive to the peptide in plasma (difference of OD) ([1]; HLA-A2^+ healthy donor #1): 0.0855 OD | IgG reactive to the peptide in plasma (difference of OD) ([1]; HLA-A2^+ healthy donor #2): — (IgG reactive to a corresponding peptide was judged to be positive when a difference of OD in a 1:100-diluted plasma was more than 0.054.) | IgG reactive to the peptide in plasma (difference of OD) ([1]; HLA-A2^+ healthy donor #3): — (IgG reactive to a corresponding peptide was judged to be positive when a difference of OD in a 1:100-diluted plasma was more than 0.054.) | IgG reactive to the peptide in plasma (difference of OD) ([1]; HLA-A2^+ healthy donor #4): — (IgG reactive to a corresponding peptide was judged to be positive when a difference of OD in a 1:100-diluted plasma was more than 0.054.) | IgG reactive to the peptide in plasma (difference of OD) ([1]; HLA-A2^+ healthy donor #5): — (IgG reactive to a corresponding peptide was judged to be positive when a difference of OD in a 1:100-diluted plasma was more than 0.054.) | IgG reactive to the peptide in plasma (difference of OD) ([1]; HLA-A2^+ healthy donor #6): — (IgG reactive to a corresponding peptide was judged to be positive when a difference of OD in a 1:100-diluted plasma was more than 0.054.) | IgG reactive to the peptide in plasma (difference of OD) ([1]; HLA-A2^+ healthy donor #7): 0.119 OD | IgG reactive to the peptide in plasma (difference of OD) ([1]; HLA-A2^+ healthy donor #8): 0.167 OD | IgG reactive to the peptide in plasma (difference of OD) ([1]; HLA-A2^+ healthy donor #9): 0.065 OD | IgG reactive to the peptide in plasma (difference of OD) ([1]; HLA-A2^+ healthy donor #10): 0.112 OD | Total (IgG-positive donors / donors tested) ([1]; HLA-A2^+ healthy donors): 5/10 | IgG reactive to the peptide in plasma (difference of OD) ([1]; HLA-A2^+ prostate cancer patient #1): — (IgG reactive to a corresponding peptide was judged to be positive when a difference of OD in a 1:100-diluted plasma was more than 0.054.) | IgG reactive to the peptide in plasma (difference of OD) ([1]; HLA-A2^+ prostate cancer patient #2): — (IgG reactive to a corresponding peptide was judged to be positive when a difference of OD in a 1:100-diluted plasma was more than 0.054.) | IgG reactive to the peptide in plasma (difference of OD) ([1]; HLA-A2^+ prostate cancer patient #3): 0.0795 OD | IgG reactive to the peptide in plasma (difference of OD) ([1]; HLA-A2^+ prostate cancer patient #4): — (IgG reactive to a corresponding peptide was judged to be positive when a difference of OD in a 1:100-diluted plasma was more than 0.054.) | IgG reactive to the peptide in plasma (difference of OD) ([1]; HLA-A2^+ prostate cancer patient #5): — (IgG reactive to a corresponding peptide was judged to be positive when a difference of OD in a 1:100-diluted plasma was more than 0.054.) | IgG reactive to the peptide in plasma (difference of OD) ([1]; HLA-A2^+ prostate cancer patient #6): — (IgG reactive to a corresponding peptide was judged to be positive when a difference of OD in a 1:100-diluted plasma was more than 0.054.) | IgG reactive to the peptide in plasma (difference of OD) ([1]; HLA-A2^+ prostate cancer patient #7): — (IgG reactive to a corresponding peptide was judged to be positive when a difference of OD in a 1:100-diluted plasma was more than 0.054.) | IgG reactive to the peptide in plasma (difference of OD) ([1]; HLA-A2^+ prostate cancer patient #8): — (IgG reactive to a corresponding peptide was judged to be positive when a difference of OD in a 1:100-diluted plasma was more than 0.054.) | IgG reactive to the peptide in plasma (difference of OD) ([1]; HLA-A2^+ prostate cancer patient #9): — (IgG reactive to a corresponding peptide was judged to be positive when a difference of OD in a 1:100-diluted plasma was more than 0.054.) | IgG reactive to the peptide in plasma (difference of OD) ([1]; HLA-A2^+ prostate cancer patient #10): 0.1305 OD | Total (IgG-positive patients / patients tested) [1, 3]: 2/10 | INF-γ production ([2]; HLA-A2^+ healthy donor #1 (A0201)): 23 pg/mL | INF-γ production ([2]; HLA-A2^+ healthy donor #2 (A0201)): 51 pg/mL | INF-γ production ([2]; HLA-A2^+ healthy donor #3 (A0201)): 0 pg/mL | INF-γ production ([2]; HLA-A2^+ healthy donor #4 (A0201)): 0 pg/mL | INF-γ production ([2]; HLA-A2^+ healthy donor #5 (A0206)): 0 pg/mL | INF-γ production ([2]; HLA-A2^+ healthy donor #6 (A0206)): 46 pg/mL | INF-γ production ([2]; HLA-A2^+ healthy donor #7 (A0206)): 0 pg/mL | INF-γ production ([2]; HLA-A2^+ healthy donor #8 (A0206)): 0 pg/mL | INF-γ production ([2]; HLA-A2^+ healthy donor #9 (A0206)): 0 pg/mL | INF-γ production ([2]; HLA-A2^+ healthy donor #10 (A0207)): 0 pg/mL | induced peptide-specific CTLs, number of donors ([2]; HLA-A2^+ healthy donors): no peptide-specific CTLs were induced | Total (donors with significant peptide-specific IFN-γ production / donors tested) ([2]; HLA-A2^+ healthy donors, p < 0.05): 0/10 | INF-γ production ([2]; HLA-A2^+ prostate cancer patient #1 (A0206)): 31 pg/mL | INF-γ production ([2]; HLA-A2^+ prostate cancer patient #2 (A0210)): 0 pg/mL | INF-γ production ([2]; HLA-A2^+ prostate cancer patient #3 (A0210)): 48 pg/mL | INF-γ production ([2]; HLA-A2^+ prostate cancer patient #4 (A0206)): 138 pg/mL | INF-γ production ([2]; HLA-A2^+ prostate cancer patient #5 (A0206)): 154 pg/mL | INF-γ production ([2]; HLA-A2^+ prostate cancer patient #6 (A0207)): 0 pg/mL | INF-γ production ([2]; HLA-A2^+ prostate cancer patient #7 (A0206)): 222 pg/mL | INF-γ production ([2]; HLA-A2^+ prostate cancer patient #8 (A0206)): 146 pg/mL | INF-γ production ([2]; HLA-A2^+ prostate cancer patient #9 (A0201)): 43 pg/mL | INF-γ production ([2]; HLA-A2^+ prostate cancer patient #10 (A0201)): 112 pg/mL | induced peptide-specific CTLs (peptide-specific IFN-γ production), number of patients [2, 3]: 5 of 10 | Total (patients with significant peptide-specific IFN-γ production / patients tested) ([2]; HLA-A2^+ prostate cancer patients, p < 0.05): 5/10
